According to ChEMBL document CHEMBL1131671, “6-(1-Hydroxyalkyl)penam sulfone derivatives as inhibitors of class A and class C beta-lactamases I” (Bioorg Med Chem Lett, 1999):
Converted amounts (≈) assume the structure as drawn.

What was measured:
[1] = molecular target: Beta-lactamase (Escherichia coli K-12, UniProt P00811); test: Inhibitory activity against AmpC (class C) beta-lactamase
[2] = system: Escherichia coli; test: In vitro inhibitory activity against Escherichia coli; type: functional
[3] = system: Mus musculus; test: In vivo inhibitory activity against Escherichia coli in mice; type: functional
[4] = system: Mus musculus; test: In vivo inhibitory activity against Serratia marcescens in mice; type: functional
[5] = system: Serratia marcescens; test: In vitro inhibitory activity against Serratia marcescens; type: functional
[6] = molecular target: Beta-lactamase TEM (Escherichia coli, UniProt P62593); test: Inhibitory activity against TEM-1 (class A) beta-lactamase
Chain of Beta-lactamase TEM (P62593 whole entry): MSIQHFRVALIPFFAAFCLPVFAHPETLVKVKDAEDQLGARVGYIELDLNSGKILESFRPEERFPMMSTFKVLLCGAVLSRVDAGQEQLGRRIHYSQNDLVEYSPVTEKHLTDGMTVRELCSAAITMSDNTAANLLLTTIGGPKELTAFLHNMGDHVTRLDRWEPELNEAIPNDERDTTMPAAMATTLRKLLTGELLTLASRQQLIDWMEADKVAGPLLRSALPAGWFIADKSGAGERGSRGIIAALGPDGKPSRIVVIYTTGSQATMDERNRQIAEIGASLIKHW

Chain of Beta-lactamase (P00811 whole entry): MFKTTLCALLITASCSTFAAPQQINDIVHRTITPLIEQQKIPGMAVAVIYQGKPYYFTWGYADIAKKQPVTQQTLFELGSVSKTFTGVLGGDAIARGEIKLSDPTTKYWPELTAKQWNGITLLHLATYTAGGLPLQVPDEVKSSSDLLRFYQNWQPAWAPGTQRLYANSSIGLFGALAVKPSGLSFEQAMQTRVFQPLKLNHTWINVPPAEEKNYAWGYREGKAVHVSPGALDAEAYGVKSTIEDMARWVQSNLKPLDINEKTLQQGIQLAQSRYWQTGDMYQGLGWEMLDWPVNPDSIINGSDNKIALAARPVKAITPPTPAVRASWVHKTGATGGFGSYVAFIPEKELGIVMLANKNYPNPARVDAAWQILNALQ

| MIC [2] | MIC [5] | Compound | IC50 [1] | ED50 [3] | ED50 [4] | IC50 [6] |
| --- | --- | --- | --- | --- | --- | --- |
| – | – | CC1(C)[C@H](C(=O)O)N2C(=O)[C@H](CO)[C@H]2S1(=O)=O | 5.8 µM | – | – | – |
| > 64 µg/mL | 32 µg/mL (≈ 61.8 µM) | CCN1CCN(C(=O)N[C@@H](C(=O)N[C@@H]2C(=O)N3[C@@H]2SC(C)(C)[C@@H]3C(=O)O)c2ccccc2)C(=O)C1=O [PIPERACILLIN] | – | 256 mg/kg | 128 mg/kg | – |
| – | – | CC1(C)S[C@@H]2[C@H](CO)C(=O)N2[C@H]1C(=O)O | 65.9 µM | – | – | 31 µM |
| – | – | C[C@H](O)[C@@H]1C(=O)N2[C@@H](C(=O)O)C(C)(C)S(=O)(=O)[C@H]12 | 0.12 µM | – | – | 204 µM |
| – | – | CC(C)[C@H](NC[C@H]1OCC[C@H]1SC1=C(C(=O)O)N2C(=O)[C@H]([C@@H](C)O)C2[C@H]1C)C(=O)O (stereo partly drawn) | 0.068 µM | – | – | 0.091 µM |
| – | – | C[C@@H](O)[C@H]1C(=O)N2[C@@H](C(=O)O)C(C)(C)S(=O)(=O)[C@H]12 | 10.2 µM | – | – | 47.9 µM |
| – | – | CC1(C)S[C@@H]2[C@@H](CO)C(=O)N2[C@H]1C(=O)O | 220 µM | – | – | 59 µM |
| – | – | C[C@H](O)[C@H]1C(=O)N2[C@@H](C(=O)O)C(C)(C)S(=O)(=O)[C@H]12 | 1.6 µM | – | – | > 334 µM |
| 4 µg/mL (≈ 15.2 µM) | 8 µg/mL (≈ 30.4 µM) | CC1(C)[C@H](C(=O)O)N2C(=O)[C@@H](CO)[C@H]2S1(=O)=O | 1.16 µM | 8 mg/kg | 30 mg/kg | – |
| – | – | C[C@@H](O)[C@H]1C(=O)N2C(C(=O)O)=C(S[C@@H]3CCO[C@@H]3CN)[C@H](C)[C@H]12 | 0.18 µM | – | – | 0.035 µM |

| Compound | MIC [2] | MIC [5] | IC50 [1] | ED50 [3] | ED50 [4] | IC50 [6] |
| --- | --- | --- | --- | --- | --- | --- |
| C[C@]1(Cn2ccnn2)[C@H](C(=O)[O-])N2C(=O)C[C@H]2S1(=O)=O.[Na+] [TAZOBACTAM SODIUM] | 2 µg/mL | 32 µg/mL | – | 7.7 mg/kg | 144 mg/kg | – |
